Data set [1] relates to Giardia intestinalis. Description: Antigiardial activity against Giardia intestinalis WB ATCC 30957 incubated for 72 hrs by trypan blue staining based assay. The class given is functional, organism-based. Conditions: Giardia duodenalis, WB ATCC 30957, 72 h.
Data set [2] relates to Entamoeba histolytica. Description: Antiamoebic activity against Entamoeba histolytica HK9 ATCC 30015 incubated for 72 hrs by trypan blue staining based assay. Conditions: ATCC 30015, 72 h. The class given is functional, organism-based.
Data set [3] can be described thus: Selectivity index, ratio of CC50 for African green monkey Vero cells to IC50 for antigiardial activity against Giardia intestinalis MSS:0696:1. Conditions: read-out: Ratio CC50/IC50. It is filed as toxicity.
In data set [4] the test system is Trichomonas vaginalis. Put plainly: Anti-trichomonas activity against Trichomonas vaginalis GT3 incubated for 48 hrs. It is filed as functional, organism-based. Conditions: GT3, 48 h.
Data set [5] relates to Giardia intestinalis. Put plainly: Antigiardial activity against Giardia intestinalis MSS:0696:1 incubated for 48 hrs. It is filed as functional, organism-based. Conditions: Giardia duodenalis, MSS:0696:1, 48 h.
Data set [6] can be described thus: Selectivity index, ratio of CC50 for African green monkey Vero cells to IC50 for antigiardial activity against Trichomonas vaginalis GT3. The class given is toxicity. Conditions: read-out: Ratio CC50/IC50.
A short description of data set [7]: Cytotoxicity against African green monkey Vero cells incubated for 48 hrs by sulforhodamine B method. The class given is cell-based. Conditions: chlorocebus sabaeus. Background: In SRB staining, fixed cells bind dye roughly in proportion to their protein.
A short description of data set [8]: Acute oral toxicity in mouse assessed as behavioral changes measured once daily for 14 days. Conditions: in vivo, time 14 day.
A short description of data set [9]: Inhibition of Escherichia coli N-terminal His-tagged FabH expressed in Escherichia coli BL21(DE3) by liquid scintillation counting method.
In data set [10] the test system is Staphylococcus aureus. Description: Antibacterial activity against Staphylococcus aureus ATCC 6538 incubated for 24 hrs by two fold serial dilution method. The class given is functional.
For data set [11], the system named is Pseudomonas aeruginosa. Description: Antibacterial activity against Pseudomonas aeruginosa ATCC 13525 incubated for 24 hrs by two fold serial dilution method. It is filed as functional.
A short description of data set [12]: Acute oral toxicity in mouse assessed as signs of gross toxicity measured once daily for 14 days. Conditions: in vivo, time 14 day.
Data set [13] can be described thus: Acute oral toxicity in mouse assessed as induction of mortality measured once daily for 14 days. Conditions: in vivo, time 14 day.
Data set [14] relates to Escherichia coli. Description: Antibacterial activity against Escherichia coli ATCC 35218 incubated for 24 hrs by two fold serial dilution method. The class given is functional.
The subject of data set [15] is Bacillus spizizenii. Put plainly: Antibacterial activity against Bacillus subtilis ATCC 6633 incubated for 24 hrs by two fold serial dilution method. The class given is functional.
Data set [16] concerns Helicobacter pylori. Put plainly: Antibacterial activity against Helicobacter pylori P12 incubated for 48 hrs by MTT assay. It is filed as functional, organism-based. A general note: Tetrazolium dyes change colour on reduction, which living cells bring about.
Data set [17] relates to Clostridium perfringens. Put plainly: Antibacterial activity against Clostridium perfringens ATCC 13124 incubated for 48 hrs under anaerobic condition by MTT assay. It is filed as functional.
Data set [18] relates to Helicobacter pylori. Put plainly: Antibacterial activity against Helicobacter pylori ATCC 26695 incubated for 48 hrs by MTT assay. It is filed as functional, organism-based.
Data set [19] has as its system Bacillus spizizenii. Put plainly: Antibacterial activity against Bacillus subtilis ATCC 6633 by MH media dilution method. The class given is functional.
Data set [20] deals with Pseudomonas aeruginosa. Description: Antibacterial activity against Pseudomonas aeruginosa ATCC 13525 by MH media dilution method. The class given is functional.
The subject of data set [21] is Staphylococcus aureus. Put plainly: Antibacterial activity against Staphylococcus aureus ATCC 6538 by MH media dilution method. It is filed as functional.
The test system of data set [22] is Escherichia coli. Description: Antibacterial activity against Escherichia coli ATCC 35218 by MH media dilution method. It is filed as functional.
Data set [23] in a line: Inhibition of Staphylococcus aureus TyrRS using L-tyrosine and tRNA as substrate preincubated for 10 mins followed by substrate addition by liquid scintillation counting method.
Data set [24] concerns the target Telomerase reverse transcriptase (Homo sapiens, UniProt O14746). Description: Inhibition of telomerase in human SGC-7901 cell extract by TRAP assay.
Data set [25] has as its system HeLa. Description: Antiproliferative activity against human Hela cells incubated for 24 to 48 hrs by CCK8 assay. The class given is functional, cell-based.
Data set [26] relates to U-251. Description: Antiproliferative activity against human U-251 cells incubated for 24 to 48 hrs by CCK8 assay. It is filed as functional, cell-based.
Data set [27] concerns A549. Put plainly: Antiproliferative activity against human A549 cells incubated for 24 to 48 hrs by CCK8 assay. The class given is functional, cell-based.
Data set [28] relates to HepG2. Put plainly: Antiproliferative activity against human HepG2 cells incubated for 24 to 48 hrs by CCK8 assay. It is filed as functional, cell-based.
Data set [29] relates to B16-F10. Put plainly: Antiproliferative activity against mouse B16-F10 cells incubated for 24 to 48 hrs by MTT assay. The class given is functional, cell-based.
The test system of data set [30] is MDA-MB-231. Put plainly: Antiproliferative activity against human MDA-MB-231 cells after 24 hrs by MTT assay. Conditions: MDA-MB-231, 24 h. The class given is functional, cell-based.
In data set [31] the test system is HEK293. Put plainly: Cytotoxicity against HEK293 cells after 24 hrs by MTT assay. It is filed as cell-based. Conditions: Homo sapiens, HEK293, 24 h.
Data set [32] relates to MCF7. Put plainly: cells. Conditions: Homo sapiens, MCF7, 24 h.
The test system of data set [33] is HeLa. Put plainly: cells. Conditions: Homo sapiens, 48 h.
For data set [34], the system named is A549. Put plainly: cells. Conditions: Homo sapiens, A549, 48 h.
Data set [35] relates to HepG2. Description: cells. Conditions: Homo sapiens, HepG2, 48 h.
The subject of data set [36] is MCF7. Put plainly: cells. Conditions: Homo sapiens, MCF7, 48 h.
In data set [37] the test system is Entamoeba histolytica. Put plainly: Antiamoebic activity against Entamoeba histolytica HM-1:IMSS trophozoites measured after 72 hrs by microdilution method. It is filed as functional, organism-based. A general note: Dilution methods test growth across graded concentrations, often in twofold steps.

Each structure is given as a SMILES string. Converted amounts (≈) assume the structure as drawn.

Chain of Telomerase reverse transcriptase (O14746 whole entry): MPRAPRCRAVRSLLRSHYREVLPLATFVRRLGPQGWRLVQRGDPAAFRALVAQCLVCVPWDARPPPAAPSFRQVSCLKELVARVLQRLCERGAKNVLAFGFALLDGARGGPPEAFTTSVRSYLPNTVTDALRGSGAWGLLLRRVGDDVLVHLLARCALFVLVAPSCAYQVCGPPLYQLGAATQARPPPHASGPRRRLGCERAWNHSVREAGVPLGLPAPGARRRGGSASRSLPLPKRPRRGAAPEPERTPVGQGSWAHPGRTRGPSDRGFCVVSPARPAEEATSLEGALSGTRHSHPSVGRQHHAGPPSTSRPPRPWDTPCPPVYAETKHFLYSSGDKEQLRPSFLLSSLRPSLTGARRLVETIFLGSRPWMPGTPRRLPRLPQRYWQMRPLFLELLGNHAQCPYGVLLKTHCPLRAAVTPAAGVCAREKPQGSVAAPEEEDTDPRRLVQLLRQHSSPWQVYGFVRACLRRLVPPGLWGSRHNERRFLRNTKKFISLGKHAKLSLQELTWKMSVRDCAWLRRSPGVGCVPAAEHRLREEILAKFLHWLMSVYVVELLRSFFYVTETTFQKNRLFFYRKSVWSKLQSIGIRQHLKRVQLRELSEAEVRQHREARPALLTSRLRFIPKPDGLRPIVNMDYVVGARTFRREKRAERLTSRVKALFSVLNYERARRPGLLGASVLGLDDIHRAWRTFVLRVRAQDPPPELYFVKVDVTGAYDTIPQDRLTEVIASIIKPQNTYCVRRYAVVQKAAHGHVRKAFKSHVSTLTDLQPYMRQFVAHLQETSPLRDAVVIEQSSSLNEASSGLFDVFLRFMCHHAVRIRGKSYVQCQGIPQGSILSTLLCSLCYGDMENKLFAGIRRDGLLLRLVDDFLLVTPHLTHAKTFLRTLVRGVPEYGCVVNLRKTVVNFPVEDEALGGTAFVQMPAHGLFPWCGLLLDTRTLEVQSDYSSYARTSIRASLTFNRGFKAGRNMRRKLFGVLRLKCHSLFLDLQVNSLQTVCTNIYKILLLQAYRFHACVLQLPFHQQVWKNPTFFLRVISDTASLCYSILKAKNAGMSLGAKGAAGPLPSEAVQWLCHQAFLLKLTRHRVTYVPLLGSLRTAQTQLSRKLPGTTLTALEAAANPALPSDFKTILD

For `O=C(O)/C=C/c1ccc([N+](=O)[O-])o1`, the IC50 is 67500 nM in data set [1] and 55700 nM in [2].
In the case of `Cc1ncc([N+](=O)[O-])n1CCOC(=O)Nc1ccc([N+](=O)[O-])cc1`, the selectivity ratio was above 116 in data set [3] and above 10 in data set [6]. Also, the IC50 in [4] stood at 9990 nM; in data set [5], 860 nM. Moreover, the CC50 – broadly, the concentration giving 50% cytotoxicity – at 48 h in data set [7] was above 100000 nM.
Turning to `Clc1ccc2c(N3CCNCC3)ccnc2c1`, the IC50 came out at 88400 nM in data set [1] and 94300 nM in [2].
With `Cc1ncc([N+](=O)[O-])n1CCOC(=O)Nc1ccccc1`, the selectivity ratio in [3] is above 102; in data set [6], 1110. In addition, the IC50 amounted to 90 nM in [4] and 980 nM in data set [5]. In addition, in [7], the cytotoxic concentration (CC50) at 48 h is above 100000 nM.
Regarding `Cc1ncc([N+](=O)[O-])n1CCOC(=O)NC1CCCCC1`, the values for the selectivity ratio in [3] and in data set [6] were above 217 and 1670, respectively. Besides, the IC50 in data set [4] was 60 nM; in data set [5], 460 nM. In data set [7], this compound came in with a CC50 at 48 h above 100000 nM.
For the compound `Cc1ncc([N+](=O)[O-])n1CC(C)OC(=O)c1ccc(/C=N/c2ccc(S(=O)(=O)NC(=N)N)cc2)cc1` (centres undefined), the 50% lethal dose (LD50) at 336 h in [8], in data set [12] and in [13] was above 5000 mg/kg in each case. In data set [9], this compound showed an IC50 of 4930 nM. For the same compound, the MIC (in general, the lowest concentration that inhibits growth of the organism) in data set [10] turned out to be 12.5 µg/mL (≈ 24.3 µM); in data set [11], 25 µg/mL (≈ 48.7 µM); in data set [14], 3.13 µg/mL (≈ 6.09 µM); in [15], 3.13 µg/mL (≈ 6.09 µM).
As for `Cc1ccc(C(C)C)cc1OCCn1c([N+](=O)[O-])cnc1C`, the IC50 was 0.0011 uM/ml in data set [16] and 4.921 uM/ml in [18]. The compound further showed a minimum inhibitory concentration (MIC) in data set [17] of 2.7 µM (≈ 0.819 µg/mL).
For the compound `COc1ccc(-c2cc(C(=O)OCCn3c([N+](=O)[O-])cnc3C)nn2-c2ccc(Cl)cc2)cc1`, the MIC turned out to be 7.82 µg/mL (≈ 16.2 µM) in [19], 1.96 µg/mL (≈ 4.07 µM) in data set [20], 7.82 µg/mL (≈ 16.2 µM) in [21] and 3.91 µg/mL (≈ 8.11 µM) in [22]. The IC50 in data set [23] came to 1670 nM.
Take `CN(C)c1ccc(/C=C/c2ncc([N+](=O)[O-])n2CCOC(=O)c2nccc3ccccc23)cc1`: the IC50 in data set [24] turned out to be 1920 nM; in [25] it was 120 nM; in data set [26] it was 430 nM; in [27] it was 170 nM; in data set [28], 140 nM.
For `Cc1cc(C)nc(NS(=O)(=O)c2ccc(/N=C\c3ccc(OCCn4c([N+](=O)[O-])cnc4C)cc3)cc2)n1`, in [29], the IC50 worked out at 190 nM.
Turning to `Cc1ncc([N+](=O)[O-])n1Cc1cn(CCCCN2C(=O)C(=O)c3cc(Cl)ccc32)nn1`, the results for the IC50 in data set [30], in [31] and in data set [32] were 26100 nM, above 100000 nM and 54200 nM, respectively.
Take `COc1cc(/C=C\c2ncc([N+](=O)[O-])n2CCOC(=O)c2c[nH]c3ccccc23)cc(OC)c1OC`: the IC50 in data set [33] came to 15 nM; in data set [34], 35 nM; in [35], 40 nM; in data set [36], 30 nM.
For `Cc1ncc([N+](=O)[O-])n1CCOC(=O)Nc1ccc(OCc2cccc(I)c2)cc1`, in data set [37], the IC50 worked out at 260 nM.
